In patent publication US12404232B2, “Compounds and compositions for intracellular delivery of therapeutic agents” (ModernaTX, Inc., priority 2015, dated 2025):

Tests used:
[1] = test system: mice; experiment: Luc expression (bioluminescence, total flux) after intravenous administration to mice; type: in vivo; settings: for AUC (p/s*h): Luc total flux (Table 3D); for 6 h Lipid/MC3 G.M. Luc Expression / AUC (h*p/s): i.v. administration; for 6 h Lipid/MC3 G.M. Luc Expression: geometric mean; for AUC (h*p/s): total Luc flux (Table 3C)
Experimental: In order to monitor how effectively various nanoparticle compositions deliver therapeutic and/or prophylactics to targeted cells, different nanoparticle compositions including a particular therapeutic and/or prophylactic (for example, a modified or naturally occurring RNA such as an mRNA) are prepared and administered to rodent populations. Mice are intravenously, intramuscularly, intraarterially, or intratumorally administered a single dose including a nanoparticle composition with a formulation such as those provided in Example 3. In some instances, mice may be made to inhale doses. Dose sizes may range from 0.001 mg/kg to 10 mg/kg, where 10 mg/kg describes a dose including 10 mg of a therapeutic and/or prophylactic in a nanoparticle composition for each 1 kg of body mass of the mouse. A control composition including PBS may also be employed.
Upon administration of nanoparticle compositions to mice, dose delivery profiles, dose responses, and toxicity of particular formulations and doses thereof can be measured by enzyme-linked immunosorbent assays (ELISA), bioluminescent imaging, or other methods. For nanoparticle compositions including mRNA, time courses of protein expression can also be evaluated. Samples collected from the rodents for evaluation may include blood, sera, and tissue (for example, muscle tissue from the site of an intramuscular injection and internal tissue); sample collection may involve sacrifice of the animals.
The efficacy of the nanoparticle compositions presented in Table 1A was evaluated with a bioluminescence study. Formulations were administered intravenously to mice (n=6) at a dosage of 0.5 mg/kg (mpk) and bioluminescence measured at 3, 6, and 24 hour time points. The standard MC3 formulation and, in some instances, a control (e.g., a PBS control) were evaluated for comparison. […] In general, flux decreased as time progressed to less than 10% of the initial flux.
The total flux (measured by area under the curve, AUC) induced by administration of a formulation including a given lipid relative to that induced by administration of a formulation including MC3 was also measured for several lipids.
The tolerability and efficacy of nanoparticle compositions to non-human primates was also investigated using sample formulations including Compounds 18, 25, 26, and 48 and MC3 to determine if these compounds are differentiated in terms of protein expression. The formulations were prepared according to the standard MC3 formulation described above and included an hEPO mRNA. Table 30 includes details of the compositions tested, while Table 31 summarizes the relative expression of Luc and hEPO mRNA in mice and rats. Expression was measured 6 hours after administration.

[2] = Particle size and polydispersity index of nanoparticle compositions (Zetasizer Nano ZS); type: physicochemical
Description: Nanoparticle compositions may be characterized by a variety of methods. For example, microscopy (e.g., transmission electron microscopy or scanning electron microscopy) may be used to examine the morphology and size distribution of a nanoparticle composition. Dynamic light scattering or potentiometry (e.g., potentiometric titrations) may be used to measure zeta potentials. Dynamic light scattering may also be utilized to determine particle sizes. Instruments such as the Zetasizer Nano ZS (Malvern Instruments Ltd, Malvern, Worcestershire, UK) may also be used to measure multiple characteristics of a nanoparticle composition, such as particle size, polydispersity index, and zeta potential.
A Zetasizer Nano ZS (Malvern Instruments Ltd, Malvern, Worcestershire, UK) can be used to determine the particle size, the polydispersity index (PDI) and the zeta potential of the nanoparticle compositions in 1×PBS in determining particle size and 15 mM PBS in determining zeta potential.
Initial studies were performed to compare the delivery efficiency of nanoparticle compositions including various compounds according to Formula (I), (IA), (II), (IIa), (IIb), (IIc), (IId) or (IIe). The cationic lipid MC3 is a current standard in the art. Accordingly, the standard MC3 formulation including about 50 mol % MC3, about 10 mol % DSPC, about 38.5 mol % cholesterol, and about 1.5 mol % PEG-DMG was used as a basis for this study. Nanoparticle compositions including DSPC as a phospholipid, cholesterol as a structural lipid, PEG-DMG as a PEG lipid, an RNA, and a compound according to Formula (I), (IA), (II), (IIa), (IIb), (IIc), (IId) or (IIe) selected from Compounds 1-159, 168-170, and 173-175 were prepared according to or via methods similar to those described in Examples 1 and 2. The ratios of the lipids were 50:10:38.5:1.5 mol % for the lipid according to Formula (I), (IA), (II), (IIa), (IIb), (IIc), (IId) or (IIe):DSPC:cholesterol:PEG-DMG. The RNA used was an mRNA encoding G5 luciferase (Luc) or G5 hEPO. Tables 1A-1B summarize the content and characteristics of the formulations. […]

| Compound | AUC (p/s*h) [1] [p/s*h] | 6 h Lipid/MC3 G.M. Luc Expression [1] | AUC (h*p/s) [1] [h*p/s] | also measured |
| --- | --- | --- | --- | --- |
| CCCCCCCCCOC(=O)CCCCCCCN(CCO)CCCCCCC/C=C\C(CCCCCCCC)CCCCCCCC [Compound 152, Nonyl (Z)-8-((2-hydroxyethyl)(10-octyloctadec-8-en-1-yl)amino)octanoate] | 2.855E+010 | – | – | – |
| CCCCCCCCCOC(=O)CCCCCCCN(CCCCCCCC(=O)OC(CCCCCCCC)CCCCCCCC)CCN1CCOCC1 [Compound 103, Heptadecan-9-yl 8-((2-morpholinoethyl)(8-(nonyloxy)-8-oxooctyl)amino)octanoate] | – | 0.171 | 2.4E+10 | – |
| CCCCCCCCC(CCCCCCCC)OC(=O)CCCCCCCN(CCO)CCCCCCCC(=O)N(C)CCCCCCCC [Compound 145, Heptadecan-9-yl 8-((2-hydroxyethyl)(8-(methyl(octyl)amino)-8-oxooctyl)amino)octanoate] | – | 0.979 | 8.1E+10 | – |
| CCCCCCCCC(CCCCCCCC)OC(=O)CCCCCCCN(CCO)CCCCCCCC(=O)OCC(CCCCCCC)OC (stereo not drawn) [Compound 148, Heptadecan-9-yl 8-((2-hydroxyethyl)(8-((2-methoxynonyl)oxy)-8-oxooctyl)amino)octanoate] | 4.965E+011 | – | – | – |
| CCCCCCCCCC(=O)OCCCCCCCN(CCO)CCCCCCCC(=O)OC(CCCCCCCC)CCCCCCCC [Compound 96, 7-((8-(Heptadecan-9-yloxy)-8-oxooctyl)(2-hydroxyethyl)amino)heptyl decanoate] | 1.209E+012 | – | – | – |
| CCCCCCCCCOC(=O)CCCCCCCN(CCO)CCN(CCO)CCCCCCCC(=O)OC(CCCCCCCC)CCCCCCCC [Compound 159, Heptadecan-9-yl 8-((2-hydroxyethyl)(2-((2-hydroxyethyl)(8-(nonyloxy)-8-oxooctyl)amino)ethyl)amino)octanoate] | 1.355E+008 | – | – | – |
| CCCCCCCCC(CCCCCC)C(=O)OCCCCCCCCCN(CCO)CCCCCCCCCOC(=O)C(CCCCCC)CCCCCCCC (stereo not drawn) [Compound 133, ((2-Hydroxyethyl)azanediyl)bis(nonane-9,1-diyl)bis(2-hexyldecanoate)] | – | 4.18 | 3.62E+11 | – |
| CCCCCCCCCC(=O)OCCCCCCCN(CCO)CCCCCCCOC(=O)C(CCCCCCCC)CCCCCCCC [Compound 151, 7-((7-(Decanoyloxy)heptyl)(2-hydroxyethyl)amino)heptyl 2-octyldecanoate] | 7.010E+011 | – | – | – |
| CCCCCCCCCOC(=O)CCCCCCCN(CCO)CCCCCCCCCC(CCCCCCCC)CCCCCCCC [Compound 153, Nonyl 8-((2-hydroxyethyl)(10-octyloctadecyl)amino)octanoate] | 2.697E+011 | – | – | – |
| CCCCCCCCCOC(=O)CCCCCCCN(CCCCCCCC(=O)OC(CCCCCCCC)CCCCCCCC)CCN1CCN(C)CC1 [Compound 101, Heptadecan-9-yl 8-((2-(4-methylpiperazin-1-yl)ethyl)(8-(nonyloxy)-8-oxooctyl)amino)octanoate] | – | 0.011 | 1.8E+09 | – |
| CCCCCCCCOP(=O)(OCCCCCCCC)OCCCCCCCN(CCO)CCCCCCCC(=O)OC(C)CCCCCCCC (stereo not drawn) [Compound 132, Decan-2-yl 8-((7-((bis(octyloxy)phosphoryl)oxy)heptyl)(2-hydroxyethyl)amino)octanoate] | – | 0.112 | 1.75E+10 | – |
| CCCCCCCCC(CCCCCCCC)OC(=O)CCCCCCCN(C)CCCCCCCCCCCC(=O)OCCCCC [Compound 150, Pentyl 12-((8-(heptadecan-9-yloxy)-8-oxooctyl)(methyl)amino)dodecanoate] | 2.704E+011 | – | – | – |
| CCCCCCCCCOC(=O)CCCCCCCN(CCO)CCCCCCCCCOC(=O)C(CCCCCC)CCCCCCCC (stereo not drawn) [Compound 134, 9-((2-Hydroxyethyl)(8-(nonyloxy)-8-oxooctyl)amino)nonyl 2-hexyldecanoate] | – | 3.27 | 3.43E+11 | – |
| CCCCCCCCCOC(=O)CCCCCCCN(CCCCCCCC(=O)OC(CCCCCCCC)CCCCCCCC)CCOCCO [Compound 154, Heptadecan-9-yl 8-((2-(2-hydroxyethoxy)ethyl)(8-(nonyloxy)-8-oxooctyl)amino)octanoate] | 5.560E+010 | – | – | – |
| CCCCCCCCCOC(=O)CCCCCCCN(CCO)CCCCCCCOP(=O)(OCCCCCCCC)OCCCCCCCC [Compound 131, Nonyl 8-((7-((bis(octyloxy)phosphoryl)oxy)heptyl)(2-hydroxyethyl)amino)octanoate] | – | 1.27 | 9.29E+10 | – |
| CCCCCCCCC(CCCCCCCC)OC(=O)CCCCCCCN(CCO)CCCCCCCC(=O)OC1CCC(CCCCC)CC1 (stereo not drawn) [Compound 66, Heptadecan-9-yl 8-((2-hydroxyethyl)(8-oxo-8-((4-pentylcyclohexyl)oxy)octyl)amino)octanoate] | – | 5.23 | 6.76E+11 | – |
| CCCCCCCCCOC(=O)CCCCCCCN(CCO)CCCCCCCCCC(=O)OC(CCCCCC)CCCCCC [Compound 147, Tridecan-7-yl 10-((2-hydroxyethyl)(8-(nonyloxy)-8-oxooctyl)amino)decanoate] | – | 8.13 | 5.63E+11 | – |
| CCCCCCCCC(CCCCCCCC)OC(=O)CCCCCCCN(CCO)CCCCCCCC(=O)OC(C)(C)C [Compound 155, tert-Butyl 8-((8-(heptadecan-9-yloxy)-8-oxooctyl)(2-hydroxyethyl)amino)octanoate] | 1.266E+011 | – | – | – |
| CCCCCCCCCOC(=O)CCCCCCCN(CCCCCCCC(=O)OC(CCCCCCCC)CCCCCCCC)C(CO)CO [Compound 156, Heptadecan-9-yl 8-((1,3-dihydroxypropan-2-yl)(8-(nonyloxy)-8-oxooctyl)amino)octanoate] | 1.170E+011 | – | – | PDI ([2]; nanoparticle composition 50:10:38.5:1.5 mol % (Table 1A)): 0.072; Size (nm) ([2]; nanoparticle composition lipid:DSPC:cholesterol:PEG-DMG 50:10:38.5:1.5 mol %, mRNA encoding Luc or hEPO (Table 1A)): 74.3 nm |
